The results in this text go back to US20220106296A1, “CYANOTRIAZOLE COMPOUNDS AND USES THEREOF” (Novartis AG, priority 2018, published 2022).

Some results are limits rather than exact numbers.

The subject of assay [1] is intracellular T. cruzi amastigotes. As to the kind of experiment: T. cruzi amastigote growth inhibition assay (NIH 3T3 host cells, β-galactosidase readout). The conditions noted are these: Trypanosoma cruzi, NIH3T3, read-out: (c) T.c.* IC50. In kind it is cell-based. As for the experimental part:
NIH 3T3 fibroblast cells (ATCC) were maintained in RPMI-1640 medium (Life Technologies) supplemented with 10% heat-inactivated fetal bovine serum and 100 IU penicillin/100 μg/ml streptomycin at 37° C./5% CO2. T. cruzi Tulahuen parasites constitutively expressing E. coli β-galactosidase were maintained in tissue culture as an infection in NIH 3T3 fibroblast cells. Briefly, 2×10^7 T. cruzi trypomastigotes were used to infect 6×10^5 NIH 3T3 cells growing in T75 CELLSTAR tissue culture flasks and cultured at 37° C./5% CO2 until proliferating intracellular parasites lysed host 3T3 cells and were released into the culture medium (typically 6-7 days). During the infection, the tissue culture medium was changed every two days. Number of T. cruzi trypomastigotes present in 1 ml of medium was determined using a haemocytometer.
To determine compound potency on intracellular T. cruzi amastigotes, NIH 3T3 cells were re-suspended in phenol red-free RPMI-1640 medium containing 3% heat-inactivated fetal bovine serum and 100 IU penicillin/100 μg/ml streptomycin, seeded at 1,000 cells/well (40 μl) in white, clear bottom 384-well plates (Greiner Bio-One), and incubated overnight at 37° C./5% CO2. The following day, 100 nl of each compound in DMSO were transferred to individual plate wells by Echo 555 acoustic liquid handling system. After one hour incubation, 1×10^6 of tissue culture-derived T. cruzi trypomastigotes, in 10 μl of phenol red-free RPMI-1640 medium supplemented with 3% heat-inactivated fetal bovine serum and 100 IU penicillin/100 μg/ml streptomycin were added to each well. Plates were then incubated for 6 days at 37° C./5% CO2. Intracellular T. cruzi parasites were quantified by measuring the activity of parasite-expressed β-galactosidase. Ten microliters of a chromogenic β-galactosidase substrate solution (0.6 mM chlorophenol red-β-D-galactopyranoside/0.6% NP-40 in PBS; both reagents from Calbiochem) were added to each well and incubated for 2 h at room temperature. After incubation, absorption was measured at 570 nm on SpectraMax M2 plate reader (Molecular Devices). Measured absorbance values in wells with compounds were divided by the average absorbance value of the plate DMSO controls, and used for calculation of compound EC50 values as described above.

The subject of assay [2] is T. b. brucei Lister427 bloodstream form parasites. As to the kind of experiment: T. b. brucei growth inhibition assay (CellTiter-Glo, 48 hours). In kind it is cell-based. The conditions noted are these: Trypanosoma brucei. In outline:
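1×10^4 bloodstream-form parasites/well in HMI-9 medium exposed to 10-point, 3-fold compound dilutions for 48 h at 37 °C, 5% CO2. Parasite number quantified as intracellular ATP by CellTiter-Glo luminescence, normalized to DMSO controls for IC50 calculation.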

Assay [3] has as its system stage I mouse model, hemolymphatic (blood stream) form of human infection. The assay is described as follows: Stage I mouse model of HAT. In kind it is in vivo. From the text:
(§1) Based on the favorable in vitro and in vivo pharmacological properties, selected cyanotraizole compounds were chosen for testing in stage I and stage II mice models. The stage I mouse model represents the hemolymphatic (blood stream) form of human infection.

The test system of assay [4] is stage II mouse model, CNS form of the disease. The assay is described as follows: Stage II mouse model of HAT. In kind it is in vivo.
Excerpt: as §1

In assay [5] the test system is T.b. gambinese STIB930. The assay is described as follows: T.b. gambiense growth inhibition assay. In kind it is cell-based. The conditions noted are these: Trypanosoma brucei, read-out: (b) T.b.g* IC50. As for the experimental part: Bloodstream form of T. b. brucei Lister427 strain was obtained from the Genomics Institute of the Novartis Research Foundation. This strain was used for carrying out growth inhibition and kill kinetics assays. T. b. gambiense STIB930 and T. b. rhodesiense STIB900 were obtained from Swiss TPH, were used for carrying out the growth inhibition assays. Bloodstream form of T. b. gambiense and T. b. rhodesiense were also grown in HMI-9 media, described above, but the media was supplemented by 5% human serum and 5% heat-inactivated FBS instead of 10% FBS. To determine compound growth inhibitory potency on T. b. brucei Lister427 bloodstream form parasites, 200 nL of 10-point, 3 fold serially diluted compounds in DMSO were transferred to the wells of white, solid bottom 384-well plates (Greiner Bio-One) by either Echo 555 acoustic liquid handling system or Mosquito. Then, 1×10^4 of T. b. brucei parasites in 40 μL of HMI-9 medium were added to each well, and the plates were incubated for 48 hours at 37° C. in 5% CO2 incubators. Parasite numbers in individual plate wells were determined through quantification of intracellular ATP amount. The CellTiter-Glo luminescent cell viability reagent (Promega) was added to plate wells, and ATP-dependent luminescence signal was measured on Tecan M1000 plate Reader after 30 min incubation. Luminescence values in wells with compounds were divided by the average luminescence value of the plate DMSO controls, and used for calculation of compound IC50 values. Similar assay was also used for determining IC50 against T.b. gambinese STIB930 and T. b. rhodesiense STIB900 strains, but the initial concentration of cells used was 3×10^4 parasites/ml.

Assay [6] relates to Leishmania donovani axenic amastigote. As to the kind of experiment: Growth inhibition of Leishmania donovani axenic amastigote. In kind it is cell-based. The conditions noted are these: L. donovani growth inhibition, read-out: (d) L.d* IC50. As for the experimental part:
Leishmania donovani axenic amastigote parasites are grown at 37° C., 5% CO2 in media made of RPMI 1640, 4 mM L-glutamine, 20% heat inactivated FBS, 100 units/ml of penicillin and 100 μg/ml of streptomycin, 23 μM Folic Acid, 100 μM Adenosine, 22 mM D-glucose, 25 mM MES. The pH of media is adjusted to 5.5 at 37° C. using HCl. 20 μL of media is first dispensed into 384 well plates and 100 nL of the compounds of invention in DMSO are added to the plate wells. At the same time control compounds and DMSO are added to plates to serve as the positive and negative controls, respectively. 40 μL of parasite culture (9600 parasites) are then added to the plate wells. The plates are then placed into incubators. After 2 day incubation, 20 μL of Cell TiterGlo (Promega) is added to the plate wells. The luminescence signal of each well is measured using the Envision reader (Perkin Elmer). The percentage inhibition of 50%, EC50, is calculated for each of the compounds.

Broadly, the IC50 is the midpoint of a concentration-inhibition curve.

As to `N#Cc1ncn(CC(=O)N2Cc3ccc(-c4cc(F)cnc4C(F)(F)F)cc3C2)n1` [Example 8, 1-(2-(5-(5-fluoro-2-(trifluoromethyl)pyridin-3-yl)isoindolin-2-yl)-2-oxoethyl)-1H-1,2,4-triazole-3-carbonitrile], the IC50 in assay [1] and in assay [2] was 100 to 1000 nM each time. Further, the “cure in stage I mouse model” value in assay [3] (10 mg/kg QD) is recorded as “complete cure without relapse”. For the same compound, the “cure in stage II mouse model” value in assay [4] (10 mg/kg QD) is “complete cure without relapse”.

For `N#Cc1ncn(CC(=O)N2Cc3ccc(-c4ccncc4C(F)(F)F)cc3C2)n1` [Example 27, 1-(2-oxo-2-(5-(3-(trifluoromethyl)pyridin-4-yl)isoindolin-2-yl)ethyl)-1H-1,2,4-triazole-3-carbonitrile], the half-inhibitory concentration (IC50) in assay [1], in assay [2] and in assay [5] was below 100 nM throughout.

Take `N#Cc1ncn(CC(=O)N2Cc3ccc(-c4ccc(F)cc4C(F)(F)F)cc3C2)n1` [Example 29, 1-(2-(5-(4-fluoro-2-(trifluoromethyl)phenyl)isoindolin-2-yl)-2-oxoethyl)-1H-1,2,4-triazole-3-carbonitrile]: the IC50 was at least 1000 nM in assay [6], below 100 nM in assay [1], below 100 nM in assay [2] and 100 to 1000 nM in assay [5]. Also, the “cure in stage I mouse model” value in assay [3] (10 mg/kg BID) is “complete cure without relapse”. Further, the “cure in stage II mouse model” value in assay [4] (100 mg/kg QD) is listed as “complete cure without relapse”.

With `N#Cc1ncn(CC(=O)N2Cc3ccc(-c4cc(F)c(F)cc4Cl)cc3C2)n1` [Example 30, 1-(2-(5-(2-chloro-4,5-difluorophenyl)isoindolin-2-yl)-2-oxoethyl)-1H-1,2,4-triazole-3-carbonitrile], the IC50 in assay [6] was at least 1000 nM; in assay [1] it was below 100 nM; in assay [2], below 100 nM; in assay [5], 100 to 1000 nM.

With `COc1ccc(-c2ccc3c(c2)CN(C(=O)Cn2cnc(C#N)n2)C3)c(C(F)(F)F)c1` [Example 31, 1-(2-(5-(4-methoxy-2-(trifluoromethyl)phenyl)isoindolin-2-yl)-2-oxoethyl)-1H-1,2,4-triazole-3-carbonitrile], the IC50 was at least 1000 nM in assay [6], below 100 nM in assay [1], below 100 nM in assay [2] and 100 to 1000 nM in assay [5].

For the compound `N#Cc1ncn(CC(=O)N2Cc3ccc(-c4ccccc4Cl)cc3C2)n1` [Example 33, 1-(2-(5-(2-chlorophenyl)isoindolin-2-yl)-2-oxoethyl)-1H-1,2,4-triazole-3-carbonitrile], the IC50 is at least 1000 nM in assay [6], below 100 nM in assay [1], 100 to 1000 nM in assay [2] and 100 to 1000 nM in assay [5].

On to `COc1ccc(-c2ccc3c(c2)CN(C(=O)Cn2cnc(C#N)n2)C3)c(Cl)c1` [Example 34, 1-(2-(5-(2-chloro-4-methoxyphenyl)isoindolin-2-yl)-2-oxoethyl)-1H-1,2,4-triazole-3-carbonitrile], for which the IC50 in assay [6] was at least 1000 nM; in assay [1], below 100 nM; in assay [2] it was 100 to 1000 nM; in assay [5], 100 to 1000 nM.

As for `N#Cc1ncn(CC(=O)N2Cc3ccc(-c4ccc(F)cc4Cl)cc3C2)n1` [Example 37, 1-(2-(5-(2-chloro-4-fluorophenyl)isoindolin-2-yl)-2-oxoethyl)-1H-1,2,4-triazole-3-carbonitrile], the IC50 was below 100 nM in assay [1], 100 to 1000 nM in assay [2] and 100 to 1000 nM in assay [5].

As to `N#Cc1ncn(CC(=O)N2Cc3ccc(-c4ccc(Cl)cc4Cl)cc3C2)n1` [Example 38, 1-(2-(5-(2,4-dichlorophenyl)isoindolin-2-yl)-2-oxoethyl)-1H-1,2,4-triazole-3-carbonitrile], the IC50 in assay [6] was at least 1000 nM; in assay [1] it was below 100 nM; in assay [2], 100 to 1000 nM; in assay [5] it was 100 to 1000 nM.

Take `N#Cc1ccc(F)c(-c2ccc3c(c2)CN(C(=O)Cn2cnc(C#N)n2)C3)c1` [Example 41, 1-(2-(5-(5-cyano-2-fluorophenyl)isoindolin-2-yl)-2-oxoethyl)-1H-1,2,4-triazole-3-carbonitrile]: the IC50 in assay [6] was at least 1000 nM; in assay [1], below 100 nM; in assay [2], 100 to 1000 nM; in assay [5], 100 to 1000 nM.

On to `N#Cc1ncn(CC(=O)N2Cc3ccc(-c4cc(F)c(F)cc4F)cc3C2)n1` [Example 45, 1-(2-oxo-2-(5-(2,4,5-trifluorophenyl)isoindolin-2-yl)ethyl)-1H-1,2,4-triazole-3-carbonitrile], for which the IC50 in assay [1], in assay [2] and in assay [5] was 100 to 1000 nM in each case.

For `N#Cc1ncn(CC(=O)N2Cc3ccc(-c4cccnc4C(F)(F)F)cc3C2)n1` [Example 85, 1-(2-oxo-2-(5-(2-(trifluoromethyl)pyridin-3-yl)isoindolin-2-yl)ethyl)-1H-1,2,4-triazole-3-carbonitrile], the half-inhibitory concentration (IC50) in assay [6] is at least 1000 nM; in assay [1], below 100 nM; in assay [2] it was below 100 nM; in assay [5] it was below 100 nM. In assay [3] (10 mg/kg QD), the “cure in stage I mouse model” value is listed as “complete cure without relapse”. Also, the “cure in stage II mouse model” value in assay [4] (15 mg/kg QD) is listed as “complete cure without relapse”.
